“Also recorded” adds a separate entry of the source.
Key:
[1] = molecular target: T1, DC-SIGN CRD (Homo sapiens, UniProt Q9NNX6); assay: Surface plasmon resonance (SPR) binding to immobilised DC-SIGN CRD; conditions: Kd=koff/kon
T1 construct: human DC-SIGN (Lys62-Ala404, from R§D Systems); purchased R&D Systems ('R§D Systems' [sic])
T1 sequence (Q9NNX6 62-404): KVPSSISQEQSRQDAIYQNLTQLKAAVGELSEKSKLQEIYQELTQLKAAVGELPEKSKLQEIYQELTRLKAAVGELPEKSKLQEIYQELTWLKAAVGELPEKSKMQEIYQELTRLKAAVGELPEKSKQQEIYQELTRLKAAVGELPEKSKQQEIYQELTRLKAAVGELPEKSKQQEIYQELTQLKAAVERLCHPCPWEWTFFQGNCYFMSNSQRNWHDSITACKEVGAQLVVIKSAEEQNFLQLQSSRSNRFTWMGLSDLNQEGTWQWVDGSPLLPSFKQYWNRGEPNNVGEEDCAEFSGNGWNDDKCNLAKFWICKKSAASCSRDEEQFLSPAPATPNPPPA
Description: SPR experiments were performed using a Biacore 3000. […] Biosensor assays were performed with HEPES-buffered saline (10 mM HEPES, 150 mM sodium chloride, pH 7.4) containing 0.005% surfactant P20 and 5 mM CaCl2 as a running buffer. All binding experiments were carried out at 25° C. with a constant flow rate of 20 μl/min. The different compounds dissolved in the running buffer (0.39 to 50 μM) were injected for 3 min, followed by a dissociation phase of 3 min. The sensor chip surface was regenerated after each experiment by injecting 10 μL of EDTA 0.5 M pH 8.0. A simple channel activated by EDC/NHS and deactivated with ethanolamine was used as control. The kinetic parameters were calculated using the BlAeval 4.1 software. Analysis was performed using the simple Langmuir binding model with separate ka/kd (kon/koff). The specific binding profiles were obtained after subtracting the response signal from the control channel and from blank-buffer injection. The fitting to each model was judged by the chi square value and randomness of residue distribution compared to the theoretical model (Langmuir binding 1:1).
The binding affinity of mannoside derivatives for the carbohydrate recognition domain (CRD) of DC-SIGN was assessed by surface plasmon resonance (SPR).
A CM5 sensor chip was functionalized with the DC-SIGN CRD, and increasing concentrations of the various compounds, mannan as a positive control and octaethyleneglycol (OEG) as a negative control, were injected over the chip surface. The association (kon) and dissociation (koff) rate constants and the resulting dissociation equilibrium constant (Kd=koff/kon) for each assessed compound were determined (see Table 1 hereunder).

[2] = test system: DCs; assay: Confocal microscopy of Alexa633-labeled TriManC24 in DCs; format: cell-based, human; conditions: Alexa Fluor 633 labeled compound, 100 μM, 10 min at 37° C.
Description: Human DCs (1×10^5 in 100 μl of RPMI medium) were exposed to Alexa633-labeled TriManC24 (100 μM final) for 10 min at 37° C. When indicated, transferrin-Alexa488 (Invitrogen) was also added for 10 min at 37° C. Cells were then washed and fixed with 4% paraformaldehyde for 15 min at room temperature. Nuclei were labeled with DAPI (1 μg/ml final) for 5 min. Slides were mounted using Prolong-Antifade (Molecular Probes). Samples were imaged with a confocal microscope (Zeiss LSM 700) and images analyzed with Adobe Photoshop.
To gain further insight into the interactions of TriManC24 with DC-SIGN expressed by DCs, a fluorescence-labeled TriManC24 was prepared by connecting Alexa Fluor 633 to hydroxyl groups of the mannose units. DCs were exposed to the labeled TriManC24 and visualized by confocal fluorescence microscopy.

[3] = test system: Dengue virus 2 (DV2); assay: Dengue virus (DV2) cis-infection of human DCs; format: cell-based
Description: Compounds of the invention (TriManC24, TriManinsatC24) were serially diluted in water. Human DCs (2.5×10^5 in 200 μl) in 48-well plates were pre-treated with different concentrations of compounds or culture medium alone, in RPMI 1640 medium […] for 30 min at 37° C. They were exposed to DV-2 at a multiplicity of infection of 1.0, for 2 h at 37° C. Cells were washed and cultured in complete RPMI medium (condition 1) or in complete medium containing the tested compounds (TriManC24, TriMannsatC24) (condition 2). After 48 h, supernatants were titered and cells were subjected to intracellular detection of viral antigens. DCs were fixed with 4% (v/v) paraformaldehyde and permeabilized with 0.1% (v/v) Triton X-100 for 3 min at room temperature. After washing, they were labeled with mouse anti-DV type 2 monoclonal antibody (3H5.1, Millipore) and stained with APC -conjugated rat anti-mouse IgG1. Fluorescence intensity of the cells was analyzed by flow cytometry (FACSCalibur, Becton Dickinson), using the Cell Quest Pro software.
There are four different dengue serotypes (1-4), and we have used DV type 2 (DV2) to further investigate the ability of the compounds of the invention (TriManC24 and TriManinsatC24) to inhibit the infection of human DCs. These cells were pre-treated with different concentrations of compounds or culture medium alone, for 30 min at 37° C. They were then exposed to DV2 for 2 hours at 37° C. Cells were washed to remove excess virions and compounds, and further cultured either in the absence (condition 1) or in the presence (condition 2) of the tested compounds. After 48 hours, cells were subjected to intracellular detection of viral antigens, and supernatants were titrated (not shown). […] FIG. 3A and FIG. 3B show the percentage of infected DCs when incubated with distinct concentrations of TriManinsatC24 in condition 1 and in condition 2, respectively. The histograms clearly show the protecting effects of TriManinsatC24, in particular in condition 2 wherein TriManinsatC24 at 10, 50 and 100 μM enabled the percentage of infected DCs to be reduced down to 40%, 20% and 2% respectively.

CCCCCCCCCCCCCCCCCCCCCCCCC(=O)NC(COCCC(=O)NCCOCCOCCOCCOC1OC(CO)C(O)C(O)C1O)(COCCC(=O)NCCOCCOCCOCCOC1OC(CO)C(O)C(O)C1O)COCCC(=O)NCCOCCOCCOCCOC1OC(CO)C(O)C(O)C1O (stereo not shown) [TriManC24]
KD (μM) [1]: low micromolar range; also recorded: Sub-micromolar
Kd [1]: 3.19 µM
cell binding and internalization (in words) [2]: binds to the cell membrane and can be internalized by DCs via clathrin -mediated endocytosis
inhibition of Dengue virus infection of DCs (in words) [3]: able to inhibit the direct infection of DCs by Dengue virus
